Biological target: AAK1 kinase domain (31-396) (Homo sapiens, UniProt Q2M2I8)
Assay: TR-FRET ligand binding displacement assay, AAK1
Settings: not given

Sequence of AAK1 kinase domain (31-396) (Q2M2I8 31-396): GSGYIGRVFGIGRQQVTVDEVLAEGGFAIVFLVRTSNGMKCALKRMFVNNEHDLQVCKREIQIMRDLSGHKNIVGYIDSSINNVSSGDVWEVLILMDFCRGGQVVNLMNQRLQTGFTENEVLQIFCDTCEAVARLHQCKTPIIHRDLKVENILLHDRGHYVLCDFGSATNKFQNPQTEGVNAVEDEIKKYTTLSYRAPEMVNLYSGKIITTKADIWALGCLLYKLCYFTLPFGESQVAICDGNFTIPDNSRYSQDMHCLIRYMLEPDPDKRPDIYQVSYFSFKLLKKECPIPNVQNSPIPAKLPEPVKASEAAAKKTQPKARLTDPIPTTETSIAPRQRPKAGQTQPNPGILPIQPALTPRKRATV

Row | Compound | Ki [µM]
1 | COc1cc(Nc2ccnc3ccc(C(F)(F)F)cc23)cc(OC)c1OC [Compound 1, 6-(Trifluoromethyl)-N-(3,4,5-trimethoxyphenyl)quinolin-4-amine] | 54
2 | COc1cc(Nc2ccnc3ccc(C(F)(F)F)cc23)cc(OC)c1 [Compound 4, N-(3,5-Dimethoxyphenyl)-6-(trifluoromethyl)quinolin-4-amine] | 34
3 | COc1ccc(Nc2ccnc3ccc(C(F)(F)F)cc23)cc1OC [Compound 5, N-(3,4-Dimethoxyphenyl)-6-(trifluoromethyl)quinolin-4-amine] | 24
4 | COc1ccc(Nc2ccnc3ccc(C(F)(F)F)cc23)c(OC)c1 [Compound 6, N-(2,4-Dimethoxyphenyl)-6-(trifluoromethyl)quinolin-4-amine] | 71
5 | COc1ccc(OC)c(Nc2ccnc3ccc(C(F)(F)F)cc23)c1 [Compound 7, N-(2,5-Dimethoxyphenyl)-6-(trifluoromethyl)quinolin-4-amine] | 80
6 | COc1ccc(Nc2ccnc3ccc(C(F)(F)F)cc23)cc1 [Compound 8, N-(4-Methoxyphenyl)-6-(trifluoromethyl)quinolin-4-amine] | 56

Now from value to compound:

Row | Ki [µM] | Compound
7 | 83 | COc1cc(Nc2ccnc3ccc(F)cc23)cc(OC)c1OC [Compound 42, 6-Fluoro-N-(3,4,5-trimethoxyphenyl)quinolin-4-amine]
8 | 44 | COc1cc(Nc2ccnc3cc(F)ccc23)cc(OC)c1OC [Compound 43, 7-Fluoro-N-(3,4,5-trimethoxyphenyl)quinolin-4-amine]
9 | > 100 | COc1ccc2nccc(Nc3cc(OC)c(OC)c(OC)c3)c2c1 [Compound 48, 6-Methoxy-N-(3,4,5-trimethoxyphenyl)quinolin-4-amine]
10 | 58 | COc1ccc2c(Nc3cc(OC)c(OC)c(OC)c3)ccnc2c1 [Compound 50, 7-Methoxy-N-(3,4,5-trimethoxyphenyl)quinolin-4-amine]
11 | 0.9 | C#Cc1cccc(Nc2ccnc3cc(OC)c(OC)cc23)c1 [Compound 55, N-(3-Ethynylphenyl)-6,7-dimethoxyquinolin-4-amine]
12 | 0.26 | COc1cc2nccc(Nc3cccc(C(C)=O)c3)c2cc1OC [Compound 56, 1-(3-((6,7-dimethoxyquinolin-4-yl)amino)phenyl)ethan-1-one]

Same assay, conditions: read-out: Binding displacement assay Ki AAK1; TR-FRET, 16-point dose response

Row | Compound | Ki [µM]
13 | COc1cc(Nc2ncnc3ccc(C(F)(F)F)cc23)cc(OC)c1 [Compound 14, N-(3,5-Dimethoxyphenyl)-6-(trifluoromethyl)quinazolin-4-amine] | > 100

Biological target: T1, GAK kinase domain (12-347) (Homo sapiens, UniProt O14976)
T1 sequence (O14976 12-347): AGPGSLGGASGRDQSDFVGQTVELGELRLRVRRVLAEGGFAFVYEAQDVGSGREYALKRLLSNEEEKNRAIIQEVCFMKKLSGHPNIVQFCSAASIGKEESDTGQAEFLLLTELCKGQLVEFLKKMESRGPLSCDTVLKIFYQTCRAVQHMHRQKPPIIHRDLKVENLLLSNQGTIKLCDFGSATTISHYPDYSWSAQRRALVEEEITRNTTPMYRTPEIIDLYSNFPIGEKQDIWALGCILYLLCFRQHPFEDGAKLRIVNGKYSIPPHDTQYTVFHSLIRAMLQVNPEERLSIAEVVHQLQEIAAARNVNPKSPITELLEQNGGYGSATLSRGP
Assay: TR-FRET ligand binding displacement assay, GAK
Settings: not given

Row | Compound | Ki [µM]
14 | COc1cc(Nc2ccnc3ccc(C(F)(F)F)cc23)cc(OC)c1 [Compound 4, N-(3,5-Dimethoxyphenyl)-6-(trifluoromethyl)quinolin-4-amine] | 0.054
15 | COc1ccc(Nc2ccnc3ccc(C(F)(F)F)cc23)cc1OC [Compound 5, N-(3,4-Dimethoxyphenyl)-6-(trifluoromethyl)quinolin-4-amine] | 0.058
16 | COc1ccc(Nc2ccnc3ccc(C(F)(F)F)cc23)c(OC)c1 [Compound 6, N-(2,4-Dimethoxyphenyl)-6-(trifluoromethyl)quinolin-4-amine] | 0.86
17 | COc1ccc(OC)c(Nc2ccnc3ccc(C(F)(F)F)cc23)c1 [Compound 7, N-(2,5-Dimethoxyphenyl)-6-(trifluoromethyl)quinolin-4-amine] | 0.14
18 | COc1ccc(Nc2ccnc3ccc(C(F)(F)F)cc23)cc1 [Compound 8, N-(4-Methoxyphenyl)-6-(trifluoromethyl)quinolin-4-amine] | 0.73

Results, then the compound that gave them:

Row | Ki [µM] | Compound
19 | 0.0035 | C#Cc1cccc(Nc2ccnc3cc(OC)c(OC)cc23)c1 [Compound 55, N-(3-Ethynylphenyl)-6,7-dimethoxyquinolin-4-amine]
20 | 0.4 | COc1cc2nccc(Nc3cccc(C(C)=O)c3)c2cc1OC [Compound 56, 1-(3-((6,7-dimethoxyquinolin-4-yl)amino)phenyl)ethan-1-one]

Same assay, conditions: GAK, AAK1, BMP2K, STK16

Row | Compound | range of affinity across all four NAK family kinases [fold]
21 | CC(C)(C)Oc1ccc(Nc2ccnc3ccc(C(F)(F)F)cc23)cc1 [Compound 39, N-(4-(tert-Butoxy)phenyl)-6-(trifluoromethyl)quinolin-4-amine] | ≤ 8

Same assay, conditions: relative to 1

Row | Compound | fold drop in GAK potency [fold]
22 | COc1cc(Nc2ccnc3ccc(C(F)(F)F)cc23)cc(OC)c1 [Compound 4, N-(3,5-Dimethoxyphenyl)-6-(trifluoromethyl)quinolin-4-amine] | 10
23 | COc1ccc(Nc2ccnc3ccc(C(F)(F)F)cc23)cc1OC [Compound 5, N-(3,4-Dimethoxyphenyl)-6-(trifluoromethyl)quinolin-4-amine] | 10
24 | COc1ccc(Nc2ccnc3ccc(C(F)(F)F)cc23)cc1 [Compound 8, N-(4-Methoxyphenyl)-6-(trifluoromethyl)quinolin-4-amine] | 100

Same assay, conditions: relative to 49

Row | Compound | fold reduction in GAK activity [fold]
25 | COc1cc2nccc(Nc3cccc(C(C)=O)c3)c2cc1OC [Compound 56, 1-(3-((6,7-dimethoxyquinolin-4-yl)amino)phenyl)ethan-1-one] | 100

Same assay, conditions: selectivity against the nearest NAK family member

Row | Compound | NAK selectivity (ratio of GAK Ki and Ki of nearest NAK family member)
26 | COc1cc(Nc2ccnc3ccc(C(F)(F)F)cc23)cc(OC)c1 [Compound 4, N-(3,5-Dimethoxyphenyl)-6-(trifluoromethyl)quinolin-4-amine] | 640
27 | COc1ccc(Nc2ccnc3ccc(C(F)(F)F)cc23)cc1OC [Compound 5, N-(3,4-Dimethoxyphenyl)-6-(trifluoromethyl)quinolin-4-amine] | 420
28 | COc1ccc(Nc2ccnc3ccc(C(F)(F)F)cc23)c(OC)c1 [Compound 6, N-(2,4-Dimethoxyphenyl)-6-(trifluoromethyl)quinolin-4-amine] | 81
29 | COc1ccc(OC)c(Nc2ccnc3ccc(C(F)(F)F)cc23)c1 [Compound 7, N-(2,5-Dimethoxyphenyl)-6-(trifluoromethyl)quinolin-4-amine] | 420
30 | COc1ccc(Nc2ccnc3ccc(C(F)(F)F)cc23)cc1 [Compound 8, N-(4-Methoxyphenyl)-6-(trifluoromethyl)quinolin-4-amine] | 26
31 | FC(F)(F)c1ccc2nccc(Nc3ccc4c(c3)OCCO4)c2c1 [Compound 12, N-(2,3-Dihydrobenzo[b][1,4]dioxin-6-yl)-6-(trifluoromethyl)quinolin-4-amine] | 14
32 | COc1cc(Nc2ncnc3ccc(C(F)(F)F)cc23)cc(OC)c1OC [Compound 13, 6-(Trifluoromethyl)-N-(3,4,5-trimethoxyphenyl)quinazolin-4-amine] | 73
33 | COc1cc(Nc2ncnc3ccc(C(F)(F)F)cc23)cc(OC)c1 [Compound 14, N-(3,5-Dimethoxyphenyl)-6-(trifluoromethyl)quinazolin-4-amine] | 26
34 | COc1ccc(Nc2ncnc3ccc(C(F)(F)F)cc23)cc1 [Compound 15, N-(4-Methoxyphenyl)-6-(trifluoromethyl)quinazolin-4-amine] | 1.5

Second part, the compound after the results:

Row | NAK selectivity (ratio of GAK Ki and Ki of nearest NAK family member) | Compound
35 | 22000 | COc1ccc2c(Nc3cc(OC)c(OC)c(OC)c3)ccnc2c1 [Compound 50, 7-Methoxy-N-(3,4,5-trimethoxyphenyl)quinolin-4-amine]
36 | 15000 | COc1cc(Nc2ccnc3cc(C(F)(F)F)ccc23)cc(OC)c1OC [Compound 51, 7-(Trifluoromethyl)-N-(3,4,5-trimethoxyphenyl)quinolin-4-amine]
37 | 9300 | COc1cc(Nc2ccnc3cc(C#N)ccc23)cc(OC)c1OC [Compound 52, 4-((3,4,5-Trimethoxyphenyl)amino)quinoline-7-carbonitrile]
38 | 260 | C#Cc1cccc(Nc2ccnc3cc(OC)c(OC)cc23)c1 [Compound 55, N-(3-Ethynylphenyl)-6,7-dimethoxyquinolin-4-amine]

Biological target: STK16 kinase domain (13-305) (Homo sapiens, UniProt O75716)
Assay: TR-FRET ligand binding displacement assay, STK16
Settings: not given

Sequence of STK16 kinase domain (13-305) (O75716 13-305): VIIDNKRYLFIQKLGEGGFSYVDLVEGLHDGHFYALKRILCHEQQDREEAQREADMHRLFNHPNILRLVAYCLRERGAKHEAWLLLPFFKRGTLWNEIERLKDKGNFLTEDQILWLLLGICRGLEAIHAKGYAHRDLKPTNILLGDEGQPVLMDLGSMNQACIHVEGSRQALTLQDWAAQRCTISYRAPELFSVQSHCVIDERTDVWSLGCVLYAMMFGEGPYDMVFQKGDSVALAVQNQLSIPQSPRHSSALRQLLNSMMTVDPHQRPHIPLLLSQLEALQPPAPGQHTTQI

Row | Compound | Ki [µM] | STK16 affinity relative to GAK [fold]
39 | COc1cc(Nc2ccnc3ccc(C(F)(F)F)cc23)cc(OC)c1OC [Compound 1, 6-(Trifluoromethyl)-N-(3,4,5-trimethoxyphenyl)quinolin-4-amine] | 17 | –
40 | COc1cc(Nc2ccnc3ccc(C(F)(F)F)cc23)cc(OC)c1 [Compound 4, N-(3,5-Dimethoxyphenyl)-6-(trifluoromethyl)quinolin-4-amine] | 52 | –
41 | COc1ccc(Nc2ccnc3ccc(C(F)(F)F)cc23)cc1OC [Compound 5, N-(3,4-Dimethoxyphenyl)-6-(trifluoromethyl)quinolin-4-amine] | 24 | –
42 | COc1ccc(Nc2ccnc3ccc(C(F)(F)F)cc23)c(OC)c1 [Compound 6, N-(2,4-Dimethoxyphenyl)-6-(trifluoromethyl)quinolin-4-amine] | 70 | –
43 | COc1ccc(OC)c(Nc2ccnc3ccc(C(F)(F)F)cc23)c1 [Compound 7, N-(2,5-Dimethoxyphenyl)-6-(trifluoromethyl)quinolin-4-amine] | 58 | –
44 | COc1ccc(Nc2ccnc3ccc(C(F)(F)F)cc23)cc1 [Compound 8, N-(4-Methoxyphenyl)-6-(trifluoromethyl)quinolin-4-amine] | 19 | –

Other lines, results leading:

Row | Ki [µM] | STK16 affinity relative to GAK [fold] | Compound
45 | – | ≤ 2 | CS(=O)(=O)c1cccc(Nc2ccnc3ccc(C(F)(F)F)cc23)c1 [Compound 37, N-(3-(Methylsulfonyl)phenyl)-6-(trifluoromethyl)quinolin-4-amine]
46 | > 100 | – | COc1cc(Nc2ccnc3ccc(F)cc23)cc(OC)c1OC [Compound 42, 6-Fluoro-N-(3,4,5-trimethoxyphenyl)quinolin-4-amine]
47 | > 100 | – | COc1cc(Nc2ccnc3cc(F)ccc23)cc(OC)c1OC [Compound 43, 7-Fluoro-N-(3,4,5-trimethoxyphenyl)quinolin-4-amine]
48 | > 100 | – | COc1ccc2nccc(Nc3cc(OC)c(OC)c(OC)c3)c2c1 [Compound 48, 6-Methoxy-N-(3,4,5-trimethoxyphenyl)quinolin-4-amine]
49 | > 100 | – | COc1ccc2c(Nc3cc(OC)c(OC)c(OC)c3)ccnc2c1 [Compound 50, 7-Methoxy-N-(3,4,5-trimethoxyphenyl)quinolin-4-amine]
50 | 19 | – | C#Cc1cccc(Nc2ccnc3cc(OC)c(OC)cc23)c1 [Compound 55, N-(3-Ethynylphenyl)-6,7-dimethoxyquinolin-4-amine]
51 | 1.5 | – | COc1cc2nccc(Nc3cccc(C(C)=O)c3)c2cc1OC [Compound 56, 1-(3-((6,7-dimethoxyquinolin-4-yl)amino)phenyl)ethan-1-one]

Same assay, conditions: read-out: Binding displacement assay Ki STK16; TR-FRET, 16-point dose response

Row | Compound | Ki [µM]
52 | COc1cc(Nc2ncnc3ccc(C(F)(F)F)cc23)cc(OC)c1 [Compound 14, N-(3,5-Dimethoxyphenyl)-6-(trifluoromethyl)quinazolin-4-amine] | 8

Biological target: BMP2K kinase domain (38-345) (Homo sapiens, UniProt Q9NSY1)
Assay: TR-FRET ligand binding displacement assay, BMP2K
Settings: not given

Sequence of BMP2K kinase domain (38-345) (Q9NSY1 38-345): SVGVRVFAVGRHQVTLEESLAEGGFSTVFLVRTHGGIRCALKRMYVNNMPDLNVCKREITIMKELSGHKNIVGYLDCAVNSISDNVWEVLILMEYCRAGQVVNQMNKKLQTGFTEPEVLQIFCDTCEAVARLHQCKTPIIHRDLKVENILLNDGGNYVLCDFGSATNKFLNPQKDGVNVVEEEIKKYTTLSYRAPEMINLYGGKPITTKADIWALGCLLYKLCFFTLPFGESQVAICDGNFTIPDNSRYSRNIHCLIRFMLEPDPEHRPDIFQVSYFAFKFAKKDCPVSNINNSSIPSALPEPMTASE

Row | Compound | Ki [µM]
53 | COc1cc(Nc2ccnc3ccc(C(F)(F)F)cc23)cc(OC)c1OC [Compound 1, 6-(Trifluoromethyl)-N-(3,4,5-trimethoxyphenyl)quinolin-4-amine] | > 100
54 | COc1cc(Nc2ccnc3ccc(C(F)(F)F)cc23)cc(OC)c1 [Compound 4, N-(3,5-Dimethoxyphenyl)-6-(trifluoromethyl)quinolin-4-amine] | 85
55 | COc1ccc(Nc2ccnc3ccc(C(F)(F)F)cc23)cc1OC [Compound 5, N-(3,4-Dimethoxyphenyl)-6-(trifluoromethyl)quinolin-4-amine] | 44
56 | COc1ccc(Nc2ccnc3ccc(C(F)(F)F)cc23)c(OC)c1 [Compound 6, N-(2,4-Dimethoxyphenyl)-6-(trifluoromethyl)quinolin-4-amine] | > 100
57 | COc1ccc(OC)c(Nc2ccnc3ccc(C(F)(F)F)cc23)c1 [Compound 7, N-(2,5-Dimethoxyphenyl)-6-(trifluoromethyl)quinolin-4-amine] | > 100
58 | COc1ccc(Nc2ccnc3ccc(C(F)(F)F)cc23)cc1 [Compound 8, N-(4-Methoxyphenyl)-6-(trifluoromethyl)quinolin-4-amine] | 75
59 | COc1ccccc1Nc1ccnc2ccc(C(F)(F)F)cc12 [Compound 10, N-(2-Methoxyphenyl)-6-(trifluoromethyl)quinolin-4-amine] | 11
60 | FC(F)(F)c1ccc2nccc(Nc3ccc4c(c3)OCCO4)c2c1 [Compound 12, N-(2,3-Dihydrobenzo[b][1,4]dioxin-6-yl)-6-(trifluoromethyl)quinolin-4-amine] | 56
61 | COc1ccc(Nc2ncnc3ccc(C(F)(F)F)cc23)cc1 [Compound 15, N-(4-Methoxyphenyl)-6-(trifluoromethyl)quinazolin-4-amine] | > 100

The next lines start with the values.

Row | Ki [µM] | Compound
62 | > 100 | COc1cc(Nc2ccnc3ccc(F)cc23)cc(OC)c1OC [Compound 42, 6-Fluoro-N-(3,4,5-trimethoxyphenyl)quinolin-4-amine]
63 | > 100 | COc1cc(Nc2ccnc3cc(F)ccc23)cc(OC)c1OC [Compound 43, 7-Fluoro-N-(3,4,5-trimethoxyphenyl)quinolin-4-amine]
64 | > 100 | COc1cc(Nc2ccnc3ccc(S(C)(=O)=O)cc23)cc(OC)c1OC [Compound 47, 6-(Methylsulfonyl)-N-(3,4,5-trimethoxyphenyl)quinolin-4-amine]
65 | > 100 | COc1ccc2nccc(Nc3cc(OC)c(OC)c(OC)c3)c2c1 [Compound 48, 6-Methoxy-N-(3,4,5-trimethoxyphenyl)quinolin-4-amine]
66 | > 100 | COc1ccc2c(Nc3cc(OC)c(OC)c(OC)c3)ccnc2c1 [Compound 50, 7-Methoxy-N-(3,4,5-trimethoxyphenyl)quinolin-4-amine]
67 | > 100 | COc1cc(Nc2ccnc3cc(C#N)ccc23)cc(OC)c1OC [Compound 52, 4-((3,4,5-Trimethoxyphenyl)amino)quinoline-7-carbonitrile]
68 | 2.4 | C#Cc1cccc(Nc2ccnc3cc(OC)c(OC)cc23)c1 [Compound 55, N-(3-Ethynylphenyl)-6,7-dimethoxyquinolin-4-amine]
69 | 0.68 | COc1cc2nccc(Nc3cccc(C(C)=O)c3)c2cc1OC [Compound 56, 1-(3-((6,7-dimethoxyquinolin-4-yl)amino)phenyl)ethan-1-one]

Same assay, conditions: read-out: Binding displacement assay Ki BMP2K; TR-FRET, 16-point dose response

Row | Compound | Ki [µM]
70 | 6,7-Dimethoxy-N-(3,4,5-trimethoxyphenyl)quinolin-4-amine [Compound 57] | 19
71 | COc1cc(Nc2ncnc3ccc(C(F)(F)F)cc23)cc(OC)c1 [Compound 14, N-(3,5-Dimethoxyphenyl)-6-(trifluoromethyl)quinazolin-4-amine] | > 100

From paper PMC5914168 (ChemMedChem, 2017)
